Measured values: PMC4840262 (Mutagenesis, 2015)
Where a name gives a salt, the structure may show the parent alone. Read-outs that look alike come from different tables or passages of the source. Marks after values point to notes of the source that are not given here.

Tests used:
CHO-K1 cells [1] = settings: Chinese hamster
CHO-K1 cells [2] = settings: cited from earlier work
human lymphocytes [3] = test system: human lymphocytes
human lymphocytes [4] = test system: human lymphocytes; remark: listed apart in the source
rats = settings: cited from earlier work
mice [5] = settings: cited from earlier work
[6] = format: in vivo; settings: rat, plasma, po
[7] = test system: bone marrow polychromatic erythrocytes (PCE); settings: female, rat, in vivo; for % Micronucleated PCE / % PCE: Han Wistar [Crl:WI(Han)], po
[8] = female, Han Wistar [Cr1 WI(Han)], rat, in vivo, po, 400 mg/kg
[9] = humans, 100mg once or twice a day for 3 days, original commercial oral GI formulation; cited from earlier work
[10] = Wistar rat, oral dose of 40mg/kg, microsuspension, after 4h; cited from earlier work
CHL cells = settings: cited from earlier work
[11] = test system: C3H/10T1/2 Cl 8 mouse embryo fibroblasts; settings: cited from earlier work
in vitro = settings: male, human, Cytotoxicity (%)
mouse bone marrow = settings: in vivo, po; cited from earlier work
mice [12] = settings: mouse, in vivo; cited from earlier work
bacteria (Ames test) = settings: cited from earlier work
Bacillus subtilis = settings: cited from earlier work
Saccharomyces cerevisiae = settings: cited from earlier work
Drosophila melanogaster = settings: in vivo; cited from earlier work
[13] = human PK studies, high therapeutic doses; cited from earlier work

Compound: CCCCNC(=O)n1c(NC(=O)OC)nc2ccccc21 [Benomyl, benomyl]
- BMD10 (CHO-K1 cells [1]): 0.450 µg/mL
- BMDL10 (CHO-K1 cells [1]): 0.348 µg/mL
- Td (threshold dose) (CHO-K1 cells [2]): 0.659 µg/mL
- Td–L–CI (lower confidence Td) (CHO-K1 cells [2]): 0.520 µg/mL

Compound: CCC[S+]([O-])c1ccc2[nH]c(NC(=O)OC)nc2c1 (stereo not drawn) [Albendazole sulfoxide, albendazole sulfoxide]
- Lowest non-significant doses (micronuclei) (human lymphocytes [3]; male, human): 3.0 µg per ml
- %C+ micronuclei (human lymphocytes [4]; male, human): 71%
- %C− micronuclei (human lymphocytes [4]; male, human): 29%
- BMD10 (CHO-K1 cells [1]): 1.100 µg/mL
- BMDL10 (CHO-K1 cells [1]): 0.861 µg/mL
- Td (threshold dose) (CHO-K1 cells [2]): 1.708 µg/mL
- Td–L–CI (lower confidence Td) (CHO-K1 cells [2]): 1.474 µg/mL

Compound: CCCSc1ccc2nc(NC(=O)OC)[nH]c2c1 [Albendazole, albendazole]
- Fold increases in MN over concurrent vehicle control (human lymphocytes [3]; male, human): 9.3
- Lowest non-significant doses (micronuclei) (human lymphocytes [3]; male, human): 0.04 µg per ml
- %C+ micronuclei (human lymphocytes [4]; male, human): 72%
- %C− micronuclei (human lymphocytes [4]; male, human): 28%
- BMD10 (CHO-K1 cells [1]): 0.037 µg/mL
- BMDL10 (CHO-K1 cells [1]): 0.027 µg/mL
- Carcinogenicity (in words) (rats; lifetime studies in the rat): negative
- Carcinogenicity (in words) (mice [5]; lifetime studies in the mouse): negative
- Td (threshold dose) (CHO-K1 cells [2]): 0.005 µg/mL
- Td–L–CI (lower confidence Td) (CHO-K1 cells [2]): 0.003 µg/mL

Compound: COC(=O)Nc1nc2ccccc2[nH]1 [Carbendazim, carbendazim]
- BMD10 (CHO-K1 cells [1]): 0.310 µg/mL
- BMDL10 (CHO-K1 cells [1]): 0.235 µg/mL
- Td (threshold dose) (CHO-K1 cells [2]): 0.346 µg/mL
- Td–L–CI (lower confidence Td) (CHO-K1 cells [2]): 0.268 µg/mL

Compound: COC(=O)Nc1nc2cc(C(=O)c3ccc(F)cc3)ccc2[nH]1 [Flubendazole, flubendazole]
- AUC(0-t) ([6]; 65 mg/kg): 15100 ng·h/mL
- Cmax ([6]; 65 mg/kg): 910 ng/mL
- AUC(0-t) ([6]; 130 mg/kg): 16500 ng·h/mL
- Cmax ([6]; 130 mg/kg): 900 ng/mL
- AUC(0-t) ([6]; 402 mg/kg): 24900 ng·h/mL
- Cmax ([6]; 402 mg/kg): 1330 ng/mL
- Mean MNBN cell frequency (%) (human lymphocytes [3]; 0.050 µg/ml): 0.10%
- Mean MNBN cell frequency (%) (human lymphocytes [3]; 0.075 µg/ml): 0.30%
- Mean MNBN cell frequency (%) (human lymphocytes [3]; 0.100 µg/ml): 0.55%
- Mean MNBN cell frequency (%) (human lymphocytes [3]; 0.250 µg/ml): 1.15* %
- Mean MNBN cell frequency (%) (human lymphocytes [3]; 0.5 µg/ml): 1.75* %
- Mean MNBN cell frequency (%) (human lymphocytes [3]; 0.500 µg/ml): 3.15* %
- Mean MNBN cell frequency (%) (human lymphocytes [3]; 1.0 µg/ml): 3.38* %
- Mean MNBN cell frequency (%) (human lymphocytes [3]; 1.00 µg/ml): 4.25* %
- Mean MNBN cell frequency (%) (human lymphocytes [3]; 2.0 µg/ml): 0.05%
- Mean MNBN cell frequency (%) (human lymphocytes [3]; 3.0 µg/ml): 5.15* %
- Mean MNBN cell frequency (%) (human lymphocytes [3]; 6.0 µg/ml): 0.85* %
- Mean MNBN cell frequency (%) (human lymphocytes [3]; 6.5 µg/ml): 10.10* %
- Fold increases in MN over concurrent vehicle control (human lymphocytes [3]; 7.5 μg/ml): 7.2
- Mean MNBN cell frequency (%) (human lymphocytes [3]; 7.5 μg/ml): 1.65* %
- Fold increases in MN over concurrent vehicle control (human lymphocytes [3]; 9.0 μg/ml): 28.5
- Mean MNBN cell frequency (%) (human lymphocytes [3]; 9.0 μg/ml): 6.55* %
- Mean MNBN cell frequency (%) (human lymphocytes [3]; 10.0 µg/ml): 0.25%
- Mean MNBN cell frequency (%) (human lymphocytes [3]; 12.0 µg/ml): 0.20%
- Mean MNBN cell frequency (%) (human lymphocytes [3]; 14.0 µg/ml): 0.65* %
- Fold increases in MN over concurrent vehicle control (human lymphocytes [3]; 16 μg/ml): 3.6
- Mean MNBN cell frequency (%) (human lymphocytes [3]; 16.0 µg/ml): 0.90* %
- Mean MNBN cell frequency (%) (human lymphocytes [3]; 19.0 µg/ml): 0.55* %
- Fold increases in MN over concurrent vehicle control (human lymphocytes [3]; 25 μg/ml): 11.5
- Mean MNBN cell frequency (%) (human lymphocytes [3]; 25.0 µg/ml): 2.88* %
- Lowest dose where a statistically significant increase in micronuclei was observed (human lymphocytes [3]; male, human): 0.25 µg/mL
- Lowest non-significant doses (micronuclei) (human lymphocytes [3]; male, human): 0.1 µg per ml
- Lowest tested concentration, statistically significant increases in micronuclei evident (human lymphocytes [3]; male, human): 0.5 µg/mL
- Mode of action of micronucleus induction (in words) (human lymphocytes [4]): acts as an aneugen
- % micronuclei with a centromere (human lymphocytes [4]; 7.5 μg/ml): 80%
- % micronuclei without a centromere (human lymphocytes [4]; 7.5 μg/ml): 20%
- % micronuclei with a centromere (human lymphocytes [4]; 9.0 μg/ml): 88%
- % micronuclei without a centromere (human lymphocytes [4]; 9.0 μg/ml): 12%
- % micronuclei with a centromere (human lymphocytes [4]; 16 μg/ml): 83%
- % micronuclei without a centromere (human lymphocytes [4]; 16 μg/ml): 17%
- % micronuclei with a centromere (human lymphocytes [4]; 25 μg/ml): 86%
- % micronuclei without a centromere (human lymphocytes [4]; 25 μg/ml): 14%
- %C− micronuclei (human lymphocytes [4]; male, human): 30%
- BMD10 (CHO-K1 cells [1]): 0.019 µg/mL
- BMDL10 (CHO-K1 cells [1]): 0.013 µg/mL
- Revised RfD ([7]; Han Wistar [Cr1 WI(Han)]): 140.62 mg/subject/day
- % Micronucleated PCE ([7]; 65 mg/kg): 1.35* %
- % PCE ([7]; 65 mg/kg): 31.74%
- % Micronucleated PCE ([7]; 130 mg/kg): 2.31* %
- % PCE ([7]; 130 mg/kg): 33.00%
- % Micronucleated PCE ([7]; 400 mg/kg): 1.94* %
- Mean plasma concentration [8]: 610 ng/mL
- Plasma Cmax [9]: < 1 ng/mL
- Plasma levels of flubendazole [10]: 81 ng/mL
- Carcinogenicity (in words) (rats; formulated diet, doses equivalent to a maximum of 20mg/kg in rats): Neither showed evidence of carcinogenicity
- Carcinogenicity (in words) (mice [5]; formulated diet, doses equivalent to a maximum of 30mg/kg in mice): Neither showed evidence of carcinogenicity
- Polyploidy (in words) (CHL cells): induce polyploidy
- Morphological transformation (in words) [11]: morphological transformation
- cytotoxicity (in vitro; 0.050 µg/ml): 0%
- cytotoxicity (in vitro; 0.075 µg/ml): 0%
- cytotoxicity (in vitro; 0.100 µg/ml): 0%
- cytotoxicity (in vitro; 0.250 µg/ml): 0%
- cytotoxicity (in vitro; 0.5 µg/ml): 4%
- cytotoxicity (in vitro; 0.500 µg/ml): 0%
- cytotoxicity (in vitro; 1.0 µg/ml): 0%
- cytotoxicity (in vitro; 1.00 µg/ml): 16%
- cytotoxicity (in vitro; 2.0 µg/ml): 0%
- cytotoxicity (in vitro; 3.0 µg/ml): 0%
- cytotoxicity (in vitro; 6.0 µg/ml): 0%
- cytotoxicity (in vitro; 6.5 µg/ml): 43%
- cytotoxicity (in vitro; 7.5 µg/ml): 8%
- cytotoxicity (in vitro; 9.0 µg/ml): 26%
- cytotoxicity (in vitro; 10.0 µg/ml): 0%
- cytotoxicity (in vitro; 12.0 µg/ml): 0%
- cytotoxicity (in vitro; 14.0 µg/ml): 14%
- cytotoxicity (in vitro; 16.0 µg/ml): 4%
- cytotoxicity (in vitro; 19.0 µg/ml): 7%
- cytotoxicity (in vitro; 25.0 µg/ml): 12%
- Td (threshold dose) (CHO-K1 cells [2]): 0.028 µg/mL
- Td–L–CI (lower confidence Td) (CHO-K1 cells [2]): 0.025 µg/mL
- Bone marrow micronucleus test result (in words) (mouse bone marrow): negative
- Induction of dominant lethal mutations (in words) (mice [12]): negative
- Ames bacterial mutation test result (in words) (bacteria (Ames test)): negative
- Induction of DNA repair (in words) (Bacillus subtilis): negative
- Mutation test result (in words) (Saccharomyces cerevisiae): negative
- Mutation test result (in words) (Drosophila melanogaster): negative

Compound: CCCOc1ccc2nc(NC(=O)OC)[nH]c2c1 [Oxibendazole, oxibendazole]
- BMD10 (CHO-K1 cells [1]): 0.015 µg/mL
- BMDL10 (CHO-K1 cells [1]): 0.010 µg/mL
- Td (threshold dose) (CHO-K1 cells [2]): 0.032 µg/mL
- Td–L–CI (lower confidence Td) (CHO-K1 cells [2]): 0.032 µg/mL

Compound: COC(=O)Nc1nc2ccc(C(O)c3ccc(F)cc3)cc2[nH]1 (stereo not drawn) [S-reduced flubendazole]
- Cytotoxicity (%) (human lymphocytes [3]): 0.0%

Compound: COC(=O)Nc1nc2ccc([C@H](O)c3ccc(F)cc3)cc2[nH]1 [R-reduced flubendazole]
- Cytotoxicity (%) (human lymphocytes [3]): 3.0%
- Lowest dose, significant increase in micronuclei seen (human lymphocytes [3]): 1.1 µg per ml

Compound: O=P1(N(CCCl)CCCl)NCCCO1 (stereo not drawn) [Cyclophosphamide, cyclophosphamide]
- Fold increases in MN over concurrent vehicle control (human lymphocytes [3]; male, human): 5.6
- Mean MNBN cell frequency (%) (human lymphocytes [3]; male, human): 1.40* %
- % micronuclei with a centromere (human lymphocytes [4]; male, human): 16%
- % micronuclei without a centromere (human lymphocytes [4]; male, human): 84%

Compound: CC[C@]1(O)C[C@@H]2CN(CCc3c([nH]c4ccccc34)[C@@](C(=O)OC)(c3cc4c(cc3OC)N(C)[C@H]3[C@@](O)(C(=O)OC)[C@H](OC(C)=O)[C@]5(CC)C=CCN6CC[C@]43[C@@H]65)C2)C1 [Vinblastine, vinblastine sulfate]
- Fold increases in MN over concurrent vehicle control (human lymphocytes [3]; 0.12 μg/ml): 56.6
- Frequency of micronucleated binucleate cells (%) (human lymphocytes [3]; male, human): 9.25* %

Compound: c1ccc2[nH]c(-c3cscn3)nc2c1 [thiabendazole]
- MNBN induction in CHO-K1 cells (in words) (CHO-K1 cells [2]): inactive

Compound: CO[C@@]12[C@H](COC(N)=O)C3=C(C(=O)C(C)=C(N)C3=O)N1C[C@@H]1N[C@@H]12 [Mitomycin C, mitomycin C]
- Mean MNBN cell frequency (%) (human lymphocytes [3]; male, human): 8.70* %

Compound: COC(=O)Nc1nc2ccc(C(=O)c3ccccc3)cc2[nH]1 [Mebendazole, mebendazole]
- BMD10 (CHO-K1 cells [1]): 0.024 µg/mL
- BMDL10 (CHO-K1 cells [1]): 0.018 µg/mL
- Oral bioavailability [13]: around 2%
